From patent publication US8440842B2, “Antimicrobial compounds, their synthesis and their use for treatment of mammalian infections” (Leibniz-Institut fuer Naturstoff-Forschung und …, priority 2007, dated 2013)
≈ marks a conversion by molar mass, not a printed value.

Assays:
[1] = system: HSRE resistant strain (multiresistant clinical isolate); assay: MIC and MBC, classical method (liquid Shkolnikova medium, Lowenstein-Jensen medium); format: cell-based, Mycobacterium tuberculosis
[2] = system: XTB strain (extremly resistant clinical isolate); assay: as above; format: cell-based, Mycobacterium tuberculosis

| SMILES | MBC ([1]; Mycobacterium tuberculosis) | MIC ([1]; Mycobacterium tuberculosis) | MBC ([2]; Mycobacterium tuberculosis) | MIC ([2]; Mycobacterium tuberculosis) | MIC ([1]; HSRE resistant strain (multiresistant)) | MIC ([2]; X TB strain (extremly resistant)) |
| --- | --- | --- | --- | --- | --- | --- |
| O=c1nc(NCc2ccccc2)sc2c([N+](=O)[O-])cc(C(F)(F)F)cc12 [Compound 8, 2-(Benzylamino)-8-nitro-6-(trifluoromethyl)-4H-1,3-benzothiazin-4-one] | 1.56 µg/mL (≈ 4.09 µM) | 0.78 µg/mL (≈ 2.05 µM) | 1.56 µg/mL (≈ 4.09 µM) | 0.78 µg/mL (≈ 2.05 µM) |  |  |
| NNC(=O)c1ccncc1 [Isoniazid (INH), Isoniazid, reference compound] |  |  |  |  | Not active | Not active |
| CN(Cc1ccccc1)c1nc(=O)c2cc(C(F)(F)F)cc([N+](=O)[O-])c2s1 [Compound 5, 2-[Benzyl(methyl)amino]-8-nitro-6-(trifluoromethyl)-4H-1,3-benzothiazin-4-one] | 3.12 µg/mL (≈ 7.89 µM) | 1.56 µg/mL (≈ 3.95 µM) | 3.12 µg/mL (≈ 7.89 µM) | 1.56 µg/mL (≈ 3.95 µM) |  |  |
| CN(Cc1ccccc1)c1nc(=O)c2cc(Cl)cc([N+](=O)[O-])c2s1 [Compound 10, 2-[Benzyl(methyl)amino]-6-chloro-8-nitro-4H-1,3-benzothiazin-4-one] | 1.56 µg/mL (≈ 4.31 µM) | 1.56 µg/mL (≈ 4.31 µM) | 0.39 µg/mL (≈ 1.08 µM) | < 0.39 µg/mL |  |  |
